IC50 data for 32 molecules are collected here from ChEMBL document CHEMBL1142821, “Identification of potent type I MetAPs inhibitors by simple bioisosteric replacement. Part 2: SAR studies of 5-heteroalkyl substituted TCAT derivatives” (Bioorg Med Chem Lett, 2005).

As a reminder, the IC50 is the concentration that gives 50% inhibition.

For test [1], the target named is T1, Methionine aminopeptidase 1 (Saccharomyces cerevisiae S288c, UniProt Q01662).
T1 sequence (Q01662 whole entry): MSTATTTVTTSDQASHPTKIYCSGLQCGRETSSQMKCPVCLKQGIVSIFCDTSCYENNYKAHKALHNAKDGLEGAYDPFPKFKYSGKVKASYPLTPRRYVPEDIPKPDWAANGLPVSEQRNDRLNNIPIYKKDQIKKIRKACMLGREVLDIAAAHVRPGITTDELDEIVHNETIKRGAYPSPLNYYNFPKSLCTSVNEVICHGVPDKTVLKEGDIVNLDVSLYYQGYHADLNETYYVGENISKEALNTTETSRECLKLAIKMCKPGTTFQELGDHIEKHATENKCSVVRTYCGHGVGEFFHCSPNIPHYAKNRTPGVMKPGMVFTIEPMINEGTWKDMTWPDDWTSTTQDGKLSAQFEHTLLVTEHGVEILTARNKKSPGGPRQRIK
Put plainly: Inhibitory concentration against ScMetAP1 enzyme activity.

For test [2], the target named is T2, Methionine aminopeptidase (Escherichia coli K-12, UniProt P0AE18).
T2 sequence (P0AE18 whole entry): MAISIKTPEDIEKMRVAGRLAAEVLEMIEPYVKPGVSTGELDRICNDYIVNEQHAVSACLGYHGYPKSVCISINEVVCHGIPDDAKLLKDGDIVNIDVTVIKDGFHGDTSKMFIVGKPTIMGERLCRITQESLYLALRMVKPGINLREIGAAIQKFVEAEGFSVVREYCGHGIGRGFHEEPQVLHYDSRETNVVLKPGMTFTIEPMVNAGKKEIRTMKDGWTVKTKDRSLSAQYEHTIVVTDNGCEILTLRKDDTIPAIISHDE
As to the kind of experiment: Inhibitory concentration against EcMetAP1 enzyme activity.

Take `CO[C@@H](Cc1scnc1C(=O)Nc1nccs1)c1ccccc1`: the IC50 turned out to be 0.45 µM in test [1] and 0.066 µM in test [2].
The corresponding values for `O=C(Nc1nccs1)c1ncsc1CN1CCOCC1` are 1.76 µM and 0.055 µM.
In the same order, the values of `COC(C)(C)Cc1scnc1C(=O)Nc1nccs1` are 3.21 µM and 0.069 µM.
In the same order, the values of `O=C(Nc1nccs1)c1ncsc1CN1CCCCC1` are 0.075 µM and 0.01 µM.
Turning to `O=C(Nc1nccs1)c1ncsc1CCN1CCCCC1`, the IC50 was 0.41 µM in test [1] and 0.045 µM in test [2].
The corresponding values for `O=C(OCCc1scnc1C(=O)Nc1nccs1)c1ccccc1` are 3.08 µM and 0.041 µM.
In the same order, the values of `CC(=O)OCCc1scnc1C(=O)Nc1nccs1` are 17.9 µM and 0.31 µM.
Turning to `Cc1ccc(S(=O)(=O)OCCc2scnc2C(=O)Nc2nccs2)cc1`, the IC50 turned out to be 3.72 µM in test [1] and 1.53 µM in test [2].
Take `O=C(Nc1nccs1)c1ncsc1CN1CCCC1`: the IC50 in test [1] was 0.35 µM; in test [2], 0.025 µM.
The corresponding values for `COc1ccc(C(Cc2scnc2C(=O)Nc2nccs2)OC)cc1` (centres undefined) are 0.31 µM and 0.023 µM.
In the same order, the values of `O=C(COCc1ccccc1)OCCc1scnc1C(=O)Nc1nccs1` are 0.55 µM and 0.13 µM.
The corresponding values for `CCCCC(Cc1scnc1C(=O)Nc1nccs1)OC` (centres undefined) are 0.45 µM and 0.1 µM.
For `COC(Cc1scnc1C(=O)Nc1nccs1)c1ccccc1F` (centres undefined), the values for the IC50 in test [1] and in test [2] were 0.27 µM and 0.034 µM, respectively.
The corresponding values for `O=C(Nc1nccs1)c1ncsc1CCOCc1ccccc1` are 4.25 µM and 0.09 µM.
The corresponding values for `COC(c1ccccc1)c1scnc1C(=O)Nc1nccs1` (centres undefined) are 0.75 µM and 0.061 µM.
The corresponding values for `COC(Cc1scnc1C(=O)Nc1nccs1)C1CCCCC1` (centres undefined) are 0.4 µM and 0.054 µM.
Consider `COC(Cc1scnc1C(=O)Nc1nccs1)c1cccc(Cl)c1` (centres undefined), for which the IC50 in test [1] was determined as 0.52 µM; in test [2], 0.09 µM.
In the same order, the values of `CO[C@H](Cc1scnc1C(=O)Nc1nccs1)c1ccccc1` are 0.45 µM and 0.036 µM.
`COc1ccccc1C(Cc1scnc1C(=O)Nc1nccs1)OC` (centres undefined): the IC50 stood at 0.57 µM in test [1] and 0.035 µM in test [2].
For `COc1cc(C(=O)OCCc2scnc2C(=O)Nc2nccs2)cc(OC)c1OC`, the IC50 was determined as 1.56 µM in test [1] and 0.16 µM in test [2].
In the same order, the values of `COC(Cc1scnc1C(=O)Nc1nccs1)c1cccc(F)c1` (centres undefined) are 0.34 µM and 0.037 µM.
The corresponding values for `O=C(Nc1nccs1)c1ncsc1CCOC(=O)C1CCCC1` are 0.8 µM and 0.14 µM.
The corresponding values for `CCOC(Cc1scnc1C(=O)Nc1nccs1)C(C)C` (centres undefined) are 0.15 µM and 0.028 µM.
With `COC(Cc1scnc1C(=O)Nc1nccs1)CC(C)C` (centres undefined), the IC50 in test [1] was determined as 0.5 µM; in test [2], 0.09 µM.
Take `COCc1scnc1C(=O)Nc1nccs1`: the IC50 in test [1] is 7.53 µM; in test [2], 0.097 µM.
The corresponding values for `COC(Cc1scnc1C(=O)Nc1nccs1)c1ccccc1` (centres undefined) are 0.44 µM and 0.043 µM.
As to `O=C(Nc1nccs1)c1ncsc1CCO`, the values for the IC50 in test [1] and in test [2] were 10.4 µM and 0.47 µM, respectively.
On to `COCCc1scnc1C(=O)Nc1nccs1`, for which the IC50 in test [1] turned out to be 6.43 µM; in test [2], 0.15 µM.
For the molecule `O=C(Cc1ccccc1)OCCc1scnc1C(=O)Nc1nccs1`, the IC50 in test [1] was 6.04 µM; in test [2], 0.033 µM.
The corresponding values for `COC(Cc1scnc1C(=O)Nc1nccs1)c1ccc(Cl)cc1` (centres undefined) are 0.57 µM and 0.033 µM.
The corresponding values for `COC(Cc1scnc1C(=O)Nc1nccs1)c1ccccc1Cl` (centres undefined) are 0.23 µM and 0.17 µM.
On to `COC(Cc1scnc1C(=O)Nc1nccs1)c1ccc(F)cc1` (centres undefined), for which the IC50 in test [1] was determined as 0.39 µM; in test [2], 0.057 µM.
